The text below walks through data of patent publication US20240116985A1, “STAPLED PEPTIDES AND METHODS THEREOF” (priority 2020, published 2024).

Data set [1] deals with T1, full-length beta-Catenin (Uniprot ID P35222) (Homo sapiens, UniProt P35222).
T1 construct: 10 nM full-length beta-Catenin (Uniprot ID P35222)
T1 sequence (P35222 1-781): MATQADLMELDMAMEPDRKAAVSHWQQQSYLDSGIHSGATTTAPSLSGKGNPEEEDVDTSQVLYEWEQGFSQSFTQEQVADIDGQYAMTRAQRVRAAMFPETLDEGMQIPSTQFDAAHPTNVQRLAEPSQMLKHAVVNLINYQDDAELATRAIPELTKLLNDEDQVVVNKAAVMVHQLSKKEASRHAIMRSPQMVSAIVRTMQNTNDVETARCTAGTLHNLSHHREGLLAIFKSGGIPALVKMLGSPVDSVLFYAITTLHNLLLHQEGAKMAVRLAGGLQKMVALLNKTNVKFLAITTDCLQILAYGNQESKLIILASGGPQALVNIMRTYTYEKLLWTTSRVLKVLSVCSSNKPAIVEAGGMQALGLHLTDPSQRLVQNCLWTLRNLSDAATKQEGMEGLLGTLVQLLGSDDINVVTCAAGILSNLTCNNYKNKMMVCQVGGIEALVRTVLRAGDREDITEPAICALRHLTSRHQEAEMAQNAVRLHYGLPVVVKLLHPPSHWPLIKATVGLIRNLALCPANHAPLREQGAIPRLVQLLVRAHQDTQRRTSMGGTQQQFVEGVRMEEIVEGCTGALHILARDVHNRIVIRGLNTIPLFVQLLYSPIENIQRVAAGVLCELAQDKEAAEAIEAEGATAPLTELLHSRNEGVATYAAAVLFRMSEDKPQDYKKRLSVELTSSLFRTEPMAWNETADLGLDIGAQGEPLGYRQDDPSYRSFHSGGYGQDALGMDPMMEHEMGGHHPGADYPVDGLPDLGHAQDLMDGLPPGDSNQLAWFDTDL
Put plainly: Fluorescence polarization IC50 (beta-catenin / 5FAM-TCF4 10-53 competition). Type of data set: binding.

The next data set can be described thus: CHI Log D procedure. Format: physicochemical. As to conditions: for chromatographic logD: pH 7.4, CHI Log D.
The nature of another data set: Solubility in PBS. Format: physicochemical. The procedure, abridged:
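Read-out is the HPLC peak area of the supernatant from ultracentrifuged PBS solution, scaled against a 50 μM peptide DMSO injection; value reported as [(PBS area)/(DMSO area)]*50 uM.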

Data set [2] deals with T2, beta-catenin/TCF4 engagement (Homo sapiens, UniProt P35222).
T2 construct: expressed in transfected cells; host or cells: HEK293
T2 sequence (P35222 1-781): T1 sequence (P35222 1-781)
Briefly: Nano-BRET target engagement assay (B-cat-Halo & TCF4-Luc in HEK293 cells). Format: cell-based.

Data set [3] deals with TCF/LEF luciferase Reporter in DLD1 cells. Put plainly: TCF reporter assay (DLD1 TCF/LEF luciferase reporter, Bright-Glo). Format: cell-based. The following applies: for DLD1 TCF c2 BrightGlo % Inhibition: replicates. The essentials:
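Readouts: Bright-Glo luciferase for reporter signal and CellTiter-Glo for cell viability, with absolute IC50 derived. The reporter clone came from lentiviral TCF/LEF-luciferase transduction of DLD1 cells, seeded 5000 cells/well in RPMI with 4% FBS and exposed overnight to serially diluted compounds.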

Setting [4] is: absolute IC50, read-out: NanoBRET Abs IC50.
[5] abbreviates: read-out: DLD1 4% Abs IC50, DLD1 4%.
The mark [6] stands for this setting: absolute IC50, read-out: DLD1 reporter assay Abs IC50.

Values after ≈ are worked out from the molar mass of the structure shown. Values joined by “and” are separate entries in the source; they are usually repeats but may differ in a detail not shown here. Identical values can stand only once. Like-named read-outs stand apart in the source and are kept apart here.

Regarding `CC(=O)N1CCC[C@]12CC=CCCCC1(CCCC=CCCCCCC[C@@](C)(C(=O)N[C@@H](Cc3ccccc3)C(=O)N[C@@H](Cc3csc4ccccc34)C(=O)N[C@@H](CCC(N)=O)C(N)=O)NC(=O)[C@H](CCC(N)=O)NC(=O)[C@H](Cc3ccccc3)NC(=O)[C@H](C)NC(=O)[C@H](C)NC(=O)[C@H](CCC(=O)O)NC(=O)[C@H](CC(=O)O)NC1=O)NC(=O)[C@H](CC(C)C)NC(=O)[C@H](CC(=O)O)NC2=O` (stereo partly drawn) [I-505, Ac-PL3-Asp-Leu-B5-Asp-Glu-Ala-Ala-Phe-Gln-S8-Phe-BztA-Gln-NH2], the IC50 worked out at 0.023 µM in data set [1] (fluorescence polarization, read-out: beta-Catenin FP IC50); 0.023 µM in data set [1] (read-out: FP EC50); 4.9 µM in data set [2] (Abs IC50, read-out: NanoBRET Abs IC50); 4.9 µM in data set [2] (setting [4]); 5.6 µM in data set [2] (read-out: NanoBRET IC50); 10.8 µM in data set [3] (Abs IC50, read-out: DLD1 reporter assay Abs IC50). Moreover, the IC50 in data set [3] (read-out: DLD1 4% Abs IC50, DLD1 4%, absolute IC50) amounted to 9.4 µM. In the data set “CHI Log D procedure” (pH 7.4), the “CHI Log D” value was 2.259. The “Solubility” value in the data set “Solubility in PBS” is 50 µM (≈ 94.2 µg/mL).

Regarding `CC(=O)N1CCC[C@]12CC=CCCCC1(CCCC=CCCCOC(=O)N3CC[C@@](C(=O)N[C@@H](Cc4ccsc4)C(=O)N[C@@H](Cc4csc5ccccc45)C(=O)N[C@@H](CCC(N)=O)C(N)=O)(C3)NC(=O)[C@H](CCO)NC(=O)[C@H](Cc3ccccc3)NC(=O)[C@H](C)NC(=O)[C@H](C)NC(=O)[C@H](CC(=O)O)NC(=O)[C@H](CC(=O)O)NC1=O)NC(=O)[C@H](CC(C)(C)C)NC(=O)[C@H](CC(=O)O)NC2=O` (stereo partly drawn) [I-803, Ac-PL3-Asp-Npg-B5-Asp-Asp-Ala-Ala-Phe-Hse-PyrS2-3Thi-BztA-Gln-NH2], the IC50 is 0.005 µM in data set [1] (read-out: beta-Catenin FP IC50), 9.6 µM in data set [2] (read-out: NanoBRET Abs IC50), 9 µM in data set [2] (read-out: NanoBRET IC50) and 9 µM in data set [3] (setting [5]). The chromatographic logD in the data set “CHI Log D procedure” was found to be 2.03. The same compound displayed a Solubility in “Solubility in PBS” (Solubility (uM)) of 40 µM (≈ 76.2 µg/mL).

As to `CC(=O)N1CCC[C@]12CC=CCCCC1(CCCC=CCCCOC(=O)N3CC[C@@](C(=O)N[C@@H](Cc4ccsc4)C(=O)N[C@@H](Cc4csc5ccccc45)C(=O)N[C@@H](CCC(N)=O)C(N)=O)(C3)NC(=O)[C@H](Cc3ccccc3)NC(=O)[C@H](Cc3ccccc3)NC(=O)[C@H](C)NC(=O)[C@H](C)NC(=O)[C@H](CC(=O)O)NC(=O)[C@H](CC(=O)O)NC1=O)NC(=O)[C@H](CC(C)(C)C)NC(=O)[C@H](CC(=O)O)NC2=O` (stereo partly drawn) [I-807, Ac-PL3-Asp-Npg-B5-Asp-Asp-Ala-Ala-Phe-Phe-PyrS2-3Thi-BztA-Gln-NH2], the IC50 in data set [1] (read-out: beta-Catenin FP IC50) stood at 0.005 µM; in data set [2] (read-out: NanoBRET Abs IC50) it was 3.2 µM; in data set [2] (read-out: NanoBRET IC50), 5.3 µM; in data set [3] (setting [6]), 3.4 µM. The chromatographic logD in the data set “CHI Log D procedure” is 2.27. This compound yielded a Solubility in the data set “Solubility in PBS” (Solubility (uM)) of 24 µM (≈ 46.8 µg/mL).

In the case of `CC(=O)N1CCC[C@]12CC=CCCCC1(CCCC=CCCCOC(=O)N3CC[C@@](C(=O)N[C@@H](Cc4ccsc4)C(=O)N[C@@H](Cc4csc5ccccc45)C(=O)N[C@@H](CCC(N)=O)C(N)=O)(C3)NC(=O)[C@H]([C@@H](C)O)NC(=O)[C@H](Cc3ccccc3)NC(=O)[C@H](C)NC(=O)[C@H](C)NC(=O)[C@H](CC(=O)O)NC(=O)[C@H](CC(=O)O)NC1=O)NC(=O)[C@H](CC(C)(C)C)NC(=O)[C@H](CC(=O)O)NC2=O` (stereo partly drawn) [I-809, Ac-PL3-Asp-Npg-B5-Asp-Asp-Ala-Ala-Phe-Thr-PyrS2-3Thi-BztA-Gln-NH2], the IC50 in data set [1] (read-out: beta-Catenin FP IC50) was found to be 0.005 µM; in data set [2] (read-out: NanoBRET Abs IC50) it was 6.1 µM; in data set [2] (read-out: NanoBRET IC50) it was 11.7 µM; in data set [3] (setting [5]), 11.3 µM. In the data set “CHI Log D procedure”, this compound gave a chromatographic logD of 2.1. Moreover, in the data set “Solubility in PBS” (Solubility (uM)), the Solubility stood at 36 µM (≈ 68.6 µg/mL).

Take `CC(=O)N1CCC[C@]12CC=CCCCC1(CCCC=CCCCOC(=O)N3CC[C@@](C(=O)N[C@@H](Cc4ccsc4)C(=O)N[C@@H](Cc4csc5ccccc45)C(=O)N[C@H](C(N)=O)[C@@H](C)O)(C3)NC(=O)[C@H](CC(N)=O)NC(=O)[C@H](Cc3ccccc3)NC(=O)[C@H](C)NC(=O)[C@H](C)NC(=O)[C@H](CC(=O)O)NC(=O)[C@H](CC(=O)O)NC1=O)NC(=O)[C@H](CC(C)(C)C)NC(=O)[C@H](CC(=O)O)NC2=O` (stereo partly drawn) [I-814, Ac-PL3-Asp-Npg-B5-Asp-Asp-Ala-Ala-Phe-Asn-PyrS2-3Thi-BztA-Thr-NH2]: the IC50 amounted to 0.007 µM in data set [1] (read-out: beta-Catenin FP IC50), 18.9 µM in data set [2] (read-out: NanoBRET Abs IC50), 12.7 µM in data set [2] (read-out: NanoBRET IC50) and 16.5 µM in data set [3] (setting [5]). Besides, the chromatographic logD in the data set “CHI Log D procedure” came to 2.1. In the data set “Solubility in PBS” (Solubility (uM)), the Solubility was found to be 47 µM (≈ 88.9 µg/mL).

As for `CC(=O)N1CCC[C@]12CC=CCCCC1(CCCC=CCCCOC(=O)N3CC[C@@](C(=O)N[C@@H](Cc4ccsc4)C(=O)N[C@@H](Cc4csc5ccccc45)C(=O)N[C@@H](CO)C(N)=O)(C3)NC(=O)[C@H](CC(N)=O)NC(=O)[C@H](Cc3ccccc3)NC(=O)[C@H](C)NC(=O)[C@H](C)NC(=O)[C@H](CC(=O)O)NC(=O)[C@H](CC(=O)O)NC1=O)NC(=O)[C@H](CC(C)(C)C)NC(=O)[C@H](CC(=O)O)NC2=O` (stereo partly drawn) [I-815, Ac-PL3-Asp-Npg-B5-Asp-Asp-Ala-Ala-Phe-Asn-PyrS2-3Thi-BztA-Ser-NH2], the IC50 was 0.005 µM in data set [1] (read-out: beta-Catenin FP IC50), 15.4 µM in data set [2] (read-out: NanoBRET Abs IC50), 11.8 µM in data set [2] (read-out: NanoBRET IC50) and 10.3 µM in data set [3] (setting [5]). Also, in “CHI Log D procedure”, the chromatographic logD worked out at 2.1. The compound also showed a Solubility in “Solubility in PBS” (Solubility (uM)) of 46 µM (≈ 86.3 µg/mL).

Regarding `CC(=O)N1CCC[C@]12CC=CCCCC1(CCCC=CCCCOC(=O)N3CC[C@@](C(=O)N[C@@H](Cc4ccccc4)C(=O)N[C@@H](Cc4csc5ccccc45)C(=O)N[C@@H](CCC(N)=O)C(N)=O)(C3)NC(=O)[C@H](Cc3ccccc3)NC(=O)[C@H](Cc3ccccc3)NC(=O)[C@H](C)NC(=O)[C@H](C)NC(=O)[C@H](CN(CC(=O)O)CC(F)(F)F)NC(=O)[C@H](CC(=O)O)NC1=O)NC(=O)[C@H](CC(C)(C)C)NC(=O)[C@H](CC(=O)O)NC2=O` (stereo partly drawn) [I-988, Ac-PL3-Asp-Npg-B5-Asp-TfeGA-Ala-Ala-Phe-Phe-PyrS2-Phe-BztA-Gln-NH2], the IC50 in data set [1] (read-out: beta-Catenin FP IC50) came to 0.005 µM; in data set [2] (setting [4]), 13.9 µM; in data set [3] (setting [6]), 5.2 µM. In “CHI Log D procedure”, the chromatographic logD came out at 2.35. In “Solubility in PBS” (Solubility (uM)), this compound had a Solubility of 11 µM (≈ 22.6 µg/mL). For the same compound, the “DLD1 TCF c2 BrightGlo % Inhibition” value in data set [3] (first dose = 20 uM (plate map), 20 µM) is 78.1% and 81.3% and 81.9%; in data set [3] (0.625 µM) it was 11.0% and 10.7% and 15.5%; in data set [3] (1.25 µM) it was 5.7% and 22.3% and 21.2%; in data set [3] (2.5 µM), 13.3% and 28.8% and 33.4%; in data set [3] (10 µM), 61.5% and 72.0% and 76.2%; in data set [3] (third dose = 5 uM (plate map), 5 µM) it was 32.0% and 57.8% and 62.0%.

For the compound `CC(=O)N1CCC[C@]12CC=CCCCC1(CCCC=CCCCCCC[C@@](C)(C(=O)N[C@@H](Cc3ccccc3Cl)C(=O)N[C@@H](Cc3csc4ccccc34)C(=O)N[C@@H](CCC(N)=O)C(N)=O)NC(=O)[C@H](CCO)NC(=O)[C@H](Cc3ccccc3)NC(=O)[C@H](C)NC(=O)[C@H](C)NC(=O)[C@H](CN(CC(=O)O)CC(F)(F)F)NC(=O)[C@H](CC(=O)O)NC1=O)NC(=O)[C@H](CC(C)(C)C)NC(=O)[C@H](CC(=O)O)NC2=O` (stereo partly drawn) [I-996, Ac-PL3-Asp-Npg-B5-Asp-TfeGA-Ala-Ala-Phe-Hse-S8-2C1F-BztA-Gln-NH2], the IC50 came to 0.021 µM in data set [1] (read-out: beta-Catenin FP IC50), 11.3 µM in data set [2] (setting [4]), 10.8 µM in data set [3] (setting [6]) and 3.6 µM in data set [3] (setting [5]). The same compound came in with a chromatographic logD in “CHI Log D procedure” of 2.84. For the same compound, the Solubility in the data set “Solubility in PBS” (Solubility (uM)) is 48 µM (≈ 96.1 µg/mL).
